Reference: ChEMBL document CHEMBL3046689, “Volatile aldehydes are promising broad-spectrum postharvest insecticides” (J Agric Food Chem, 2000)
≈ marks a conversion by molar mass, not a printed value. Calls of active or inactive are those of the source. The rule behind the calls is not given here.

Columns and labels:
Lactuca sativa [1] = experiment: Phytotoxicity in naked Lactuca sativa (lettuce) assessed as change in visual quality after compound application through two-tier reduced pressure fumigation at 30 mmHg for 0.5 hr and then 760 mmHg for 1.5 hr at 23 +/- 1 degC after 2 hr; type: organism-based; settings: in vivo
Malus domestica [2] = experiment: Phytotoxicity in Malus x domestica (apple) assessed as induction of olfactory damage after compound application for 1 hr through two-tier reduced pressure fumigation at 30 mmHg for 0.5 hr and then 760 mmHg for 1.5 hr at 23 +/- 1 degC; type: organism-based; settings: in vivo
Oryza sativa [3] = experiment: Phytotoxicity in Oryza sativa (rice) assessed as induction of visual damage after compound application for 1 hr through two-tier reduced pressure fumigation at 30 mmHg for 0.5 hr and then 760 mmHg for 1.5 hr at 23 +/- 1 degC; type: organism-based; settings: in vivo
Phaseolus vulgaris = experiment: PhytoToxicity in Phaseolus vulgaris (beans) assessed as induction of visual damage after compound application for 1 hr through two-tier reduced pressure fumigation at 30 mmHg for 0.5 hr and then 760 mmHg for 1.5 hr at 23 +/- 1 degC; type: organism-based; settings: in vivo, other
Citrus x paradisi [4] = experiment: Phytotoxicity in Citrus x paradisi (grape fruit) assessed as induction of visual damage after compound application for 1 hr through two-tier reduced pressure fumigation at 30 mmHg for 0.5 hr and then 760 mmHg for 1.5 hr at 23 +/- 1 degC; type: organism-based; settings: in vivo
Pseudococcus affinis = experiment: Insecticidal activity against Pseudococcus affinis; type: functional, organism-based
Bemisia = experiment: Insecticidal activity against Bemisia sp.; type: functional, organism-based
Pseudococcus viburni = experiment: Insecticidal activity against Pseudococcus viburni; type: functional, organism-based
Brevicoryne brassicae = experiment: Insecticidal activity against Brevicoryne brassicae (cabbage aphids); type: functional, organism-based
Vitis vinifera [5] = experiment: (§1) Phytotoxicity in Vitis vinifera assessed as induction of olfactory damage after compound application for 1 hr through two-tier reduced pressure fumigation at 30 mmHg for 0.5 hr and then 760 mmHg for 1.5 hr at 23 +/- 1 degC; type: organism-based; settings: in vivo
Lactuca sativa [6] = experiment: Phytotoxicity in naked Lactuca sativa (lettuce) assessed as induction of olfactory damage after compound application for 1 hr through two-tier reduced pressure fumigation at 30 mmHg for 0.5 hr and then 760 mmHg for 1.5 hr at 23 +/- 1 degC; type: organism-based; settings: in vivo
[7] = test system: Brassica oleracea var. italica; experiment: Phytotoxicity in Brassica oleracea var. italica assessed as induction of visual damage after compound application for 1 hr through two-tier reduced pressure fumigation at 30 mmHg for 0.5 hr and then 760 mmHg for 1.5 hr at 23 +/- 1 degC; type: organism-based; settings: in vivo
Lactuca sativa [8] = experiment: Phytotoxicity in naked Lactuca sativa (lettuce) assessed as residual aldehyde odor after compound application through two-tier reduced pressure fumigation at 30 mmHg for 0.5 hr and then 760 mmHg for 1.5 hr at 23 +/- 1 degC after 2 hr; type: organism-based; settings: in vivo
Persea americana [9] = experiment: Phytotoxicity in Persea americana (avocado) assessed as induction of visual damage after compound application for 1 hr through two-tier reduced pressure fumigation at 30 mmHg for 0.5 hr and then 760 mmHg for 1.5 hr at 23 +/- 1 degC; type: organism-based; settings: in vivo
Citrus sinensis = experiment: Phytotoxicity in Citrus sinensis (orange) assessed as induction of olfactory damage after compound application for 1 hr through two-tier reduced pressure fumigation at 30 mmHg for 0.5 hr and then 760 mmHg for 1.5 hr at 23 +/- 1 degC; type: organism-based; settings: in vivo
Myzus persicae [10] = experiment: Insecticidal activity against Myzus persicae (green peach aphid) infested naked lettuce applied for 1 hr through two-tier reduced pressure fumigation at 30 mmHg for 0.5 hr and then 760 mmHg for 1.5 hr at 23 +/- 1 degC measured 24 hr; type: functional, organism-based
Vitis vinifera [11] = experiment: as §1; type: organism-based; settings: in vivo; remark: listed apart in the source
Lactuca sativa [12] = experiment: Phytotoxicity in naked Lactuca sativa (lettuce) after compound application for 1 hr through two-tier reduced pressure fumigation at 30 mmHg for 0.5 hr and then 760 mmHg for 1.5 hr at 23 +/- 1 degC; type: organism-based; settings: in vivo
[13] = test system: Brassica oleracea var. capitata; experiment: Phytotoxicity in Brassica oleracea var. capitata (cabbage) after compound application for 1 hr through two-tier reduced pressure fumigation at 30 mmHg for 0.5 hr and then 760 mmHg for 1.5 hr at 23 +/- 1 degC; type: organism-based; settings: in vivo
Myzus persicae [14] = experiment: Insecticidal activity against Myzus persicae (green peach aphid) placed under third leaf of naked Iceburg lettuce heads and after compound application for 2 hr through two-tier reduced pressure fumigation at 30 mmHg for 0.5 hr and then 760 mmHg for 1.5 hr at 23 +/- 1 degC measured after 24 hr; type: functional; settings: for LC50: Myzus persicae, read-out: LD50 (the source's name)
Tetranychus urticae = experiment: Insecticidal activity against Tetranychus urticae (two-spotted spider mite); type: functional, organism-based
[15] = test system: Brassica oleracea var. italica; experiment: Phytotoxicity in Brassica oleracea var. italica after compound application for 1 hr through two-tier reduced pressure fumigation at 30 mmHg for 0.5 hr and then 760 mmHg for 1.5 hr at 23 +/- 1 degC; type: organism-based; settings: in vivo
Lactuca sativa [16] = experiment: Phytotoxicity in wrapped Lactuca sativa (lettuce) assessed as induction of visual damage after compound application for 1 hr through two-tier reduced pressure fumigation at 30 mmHg for 0.5 hr and then 760 mmHg for 1.5 hr at 23 +/- 1 degC; type: organism-based; settings: in vivo
Citrus limon = experiment: Phytotoxicity in Citrus limon (lemon) assessed as induction of olfactory damage after compound application for 1 hr through two-tier reduced pressure fumigation at 30 mmHg for 0.5 hr and then 760 mmHg for 1.5 hr at 23 +/- 1 degC; type: organism-based; settings: citrus x limon, in vivo
[17] = test system: Frankliniella occidentalis; experiment: Insecticidal activity against Frankliniella occidentalis (western flower thrips); type: functional, organism-based
[18] = test system: Brassica oleracea var. capitata; experiment: Phytotoxicity in Brassica oleracea var. capitata (cabbage) assessed as induction of visual damage after compound application for 1 hr through two-tier reduced pressure fumigation at 30 mmHg for 0.5 hr and then 760 mmHg for 1.5 hr at 23 +/- 1 degC; type: organism-based; settings: in vivo
Myzus persicae [19] = experiment: Insecticidal activity against Myzus persicae (green peach aphid) infested wrapped lettuce applied for 1 hr through two-tier reduced pressure fumigation at 30 mmHg for 0.5 hr and then 760 mmHg for 1.5 hr at 23 +/- 1 degC measured 24 hr; type: functional, organism-based
Myzus persicae [20] = experiment: Insecticidal activity against Myzus persicae (green peach aphid) applied through two-tier reduced pressure fumigation at 30 mmHg for 0.5 hr and then 760 mmHg for 1.5 hr at 23 +/- 1 degC; type: functional; settings: for LC50: Myzus persicae, read-out: LD50 (the source's name)
Myzus persicae [21] = experiment: Insecticidal activity against Myzus persicae (green peach aphid) applied through atmospheric pressure fumigation at 760 mmHg for 2 hr at 23 +/- 1 degC; type: functional; settings: read-out: LD50 (the source's name)
Myzus persicae [22] = experiment: Potentiation factor, ratio of LD50 for Myzus persicae (green peach aphid) applied through atmospheric pressure fumigation at 760 mmHg for 2 hr at 23 +/- 1 degC to LD50 for Myzus persicae (green peach aphid) applied through two-tier reduced pressure fumigation at 30 mmHg for 0.5 hr and then 760 mmHg for 1.5 hr at 23 +/- 1 degC; type: functional
Acari = experiment: Insecticidal activity mites on flower bulbs; type: functional
Myzus persicae [23] = experiment: Insecticidal activity Myzus persicae (green peach aphid) on flower bulbs; type: functional
Thysanoptera = experiment: Insecticidal activity Thysanoptera (thrips) on flower bulbs; type: functional
[24] = test system: Frankliniella occidentalis; experiment: Insecticidal activity against Frankliniella occidentalis (western flower thrips) larva and adults; type: functional
Myzus persicae [25] = experiment: Insecticidal activity against Myzus persicae (green peach aphid) applied through two-tier reduced pressure fumigation at 30 mmHg for 0.5 hr and then 760 mmHg for 1.5 hr at 15 degC; type: functional; settings: read-out: LD50 (the source's name)
Lactuca sativa [26] = experiment: Phytotoxicity in wrapped Lactuca sativa (lettuce) assessed as induction of olfactory damage after compound application for 1 hr through two-tier reduced pressure fumigation at 30 mmHg for 0.5 hr and then 760 mmHg for 1.5 hr at 23 +/- 1 degC; type: organism-based; settings: in vivo
Vitis vinifera [27] = experiment: (§2) Phytotoxicity in Vitis vinifera assessed as induction of visual damage after compound application for 1 hr through two-tier reduced pressure fumigation at 30 mmHg for 0.5 hr and then 760 mmHg for 1.5 hr at 23 +/- 1 degC; type: organism-based; settings: in vivo
Persea americana [28] = experiment: Phytotoxicity in Persea americana (avocado) assessed as induction of olfactory damage after compound application for 1 hr through two-tier reduced pressure fumigation at 30 mmHg for 0.5 hr and then 760 mmHg for 1.5 hr at 23 +/- 1 degC; type: organism-based; settings: in vivo
Malus domestica [29] = experiment: Phytotoxicity in Malus x domestica (apple) assessed as induction of visual damage after compound application for 1 hr through two-tier reduced pressure fumigation at 30 mmHg for 0.5 hr and then 760 mmHg for 1.5 hr at 23 +/- 1 degC; type: organism-based; settings: in vivo
Citrus x paradisi [30] = experiment: Phytotoxicity in Citrus x paradisi (grape fruit) assessed as induction of olfactory damage after compound application for 1 hr through two-tier reduced pressure fumigation at 30 mmHg for 0.5 hr and then 760 mmHg for 1.5 hr at 23 +/- 1 degC; type: organism-based; settings: in vivo
Vitis vinifera [31] = experiment: as §2; type: organism-based; settings: in vivo; remark: listed apart in the source
Oryza sativa [32] = experiment: Phytotoxicity in Oryza sativa (rice) assessed as induction of olfactory damage after compound application for 1 hr through two-tier reduced pressure fumigation at 30 mmHg for 0.5 hr and then 760 mmHg for 1.5 hr at 23 +/- 1 degC; type: organism-based; settings: in vivo
[33] = test system: Brassica oleracea var. italica; experiment: Phytotoxicity in Brassica oleracea var. italica assessed as induction of olfactory damage after compound application for 1 hr through two-tier reduced pressure fumigation at 30 mmHg for 0.5 hr and then 760 mmHg for 1.5 hr at 23 +/- 1 degC; type: organism-based; settings: in vivo
[34] = test system: Brassica oleracea var. capitata; experiment: Phytotoxicity in Brassica oleracea var. capitata (cabbage) assessed as induction of olfactory damage after compound application for 1 hr through two-tier reduced pressure fumigation at 30 mmHg for 0.5 hr and then 760 mmHg for 1.5 hr at 23 +/- 1 degC; type: organism-based; settings: in vivo
Lactuca sativa [35] = experiment: Phytotoxicity in naked Lactuca sativa (lettuce) assessed as change in visual quality after compound application for 1 hr through two-tier reduced pressure fumigation at 30 mmHg for 0.5 hr and then 760 mmHg for 1.5 hr at 23 +/- 1 degC; type: organism-based; settings: in vivo

SMILES	Activity (Lactuca sativa [1])	Activity (Malus domestica [2])	Activity (Citrus x paradisi [4])	Activity (Pseudococcus affinis)	Activity (Bemisia)	Activity (Pseudococcus viburni)	Activity (Brevicoryne brassicae)	Activity (Vitis vinifera [5])	Activity (Lactuca sativa [6])	Activity (Lactuca sativa [8])	Activity (Persea americana [9])	Activity (Myzus persicae [10])	Activity (Vitis vinifera [11])	Activity (Lactuca sativa [12])	Activity [13]	CTP (Myzus persicae [14])	LD90 (Myzus persicae [14])	LC50 (Myzus persicae [14])	Activity (Tetranychus urticae)	Activity [17]	also measured
CC/C=C/C=O [PENTENAL]	Toxic	Non-toxic	Toxic	Active	Active	Active	inactive	Non-toxic	Toxic	Toxic	Toxic	Active	Non-toxic	Toxic	Toxic	106 mg/L.hr	25.8 mg/L	13.1 µg/mL (≈ 156 µM)	inactive	Active	Activity (Oryza sativa [3]): Toxic; Activity (Phaseolus vulgaris): Toxic; Activity [7]: Toxic; Activity (Citrus sinensis): Non-toxic; Activity [15]: Toxic; Activity (Lactuca sativa [16]): Toxic; Activity (Citrus limon): Non-toxic; Activity [18]: Toxic; Activity (Myzus persicae [19]): Active
CCCCCCC=O [HEPTANAL]																					LC50 (Myzus persicae [20]): 5 µg/mL (≈ 43.8 µM); LC50 (Myzus persicae [21]): 15 µg/mL (≈ 131 µM); Ratio (Myzus persicae [22]): 3
CBr [BROMOMETHANE]																					CTP (Acari): 100 mg/L.hr; CTP (Myzus persicae [23]): 100 mg/L.hr; CTP (Thysanoptera): 100 mg/L.hr; CTP [24]: 25 mg/L.hr
CCCC=O [BUTANAL]	Toxic			Active	Active	Active	inactive			Toxic							177.5 mg/L	130 µg/mL (≈ 1800 µM)	inactive	Active	CTP (Myzus persicae [20]): 21.6 mg/L.hr; LC50 (Myzus persicae [20]): 10.8 µg/mL (≈ 150 µM); LC50 (Myzus persicae [25]): 31 µg/mL (≈ 430 µM); LC50 (Myzus persicae [21]): 26.1 µg/mL (≈ 362 µM); Ratio (Myzus persicae [22]): 2.4
C/C=C(\C)C=O [2-methyl-(E)-2-butenal]	Toxic	Non-toxic	Non-toxic	Active	Active	Active	inactive	Non-toxic	Toxic	Toxic	Non-toxic	Active	Non-toxic	Toxic	Toxic	310 mg/L.hr	123.6 mg/L	76.6 µg/mL (≈ 911 µM)	inactive	Active	Activity (Lactuca sativa [26]): Toxic; Activity (Vitis vinifera [27]): Non-toxic; Activity (Persea americana [28]): Non-toxic; Activity (Malus domestica [29]): Non-toxic; Activity (Citrus x paradisi [30]): Non-toxic; Activity (Vitis vinifera [31]): Non-toxic; Activity (Oryza sativa [32]): Toxic; Activity [33]: Toxic; Activity [15]: Toxic; Activity [34]: Toxic; Activity (Lactuca sativa [35]): Toxic; Activity (Myzus persicae [19]): Active
